From PubChem BioAssay AID608 (Sanford-Burnham Center for Chemical Genomics, 2007) come the findings set out here.

Where “and” joins values, the source holds several entries; their conditions need not be identical. Equal values may be shown once. Calls of active or inactive are those of the source. No rule for the calls is given here.

The target of the assay is Peptidyl-prolyl cis-trans isomerase FKBP1A (Homo sapiens) (UniProt P62942). Briefly: FKBP12 binders, biophysical, NMR detection (AID 608). As to conditions: NMR binding, purified FKBP12.
Chain of Peptidyl-prolyl cis-trans isomerase FKBP1A (Homo sapiens) (P62942 whole entry, looked up): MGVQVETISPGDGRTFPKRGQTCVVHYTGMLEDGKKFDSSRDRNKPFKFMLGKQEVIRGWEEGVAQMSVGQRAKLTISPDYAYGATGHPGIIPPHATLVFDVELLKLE
By Kd is commonly meant a measure of binding affinity in units of concentration. `Cc1cc(OCC(=O)N2CCOCC2)c(C(C)C)cc1Cl`: the Kd result is “inactive”.

For `Cc1nnc(SCC(=O)NCc2ccccc2)[nH]c1=O`, the Kd was > 4 mM (inactive).

As to `O=C1NC(=S)N/C1=C\c1cccc([N+](=O)[O-])c1`, the Kd was > 4 mM (inactive).

On to `Cn1cnnc1Sc1ncnc(N)c1[N+](=O)[O-]`, for which the Kd was > 4 mM (inactive).

For `NC(C(=O)O)C(O)c1ccccc1` (configuration not stated), the Kd is > 4 mM (inactive).

For the molecule `O=C(Nc1cccnc1)c1cnn2cccnc12`, the Kd is > 4 mM (inactive).

As for `COC1=CC(=O)C(O)=C/C1=C\C=C\c1ccccc1`, the Kd was > 4 mM (inactive).

Take `Oc1ccc([C@H]2Oc3cc(O)cc(O)c3C[C@H]2O)cc1`: the Kd is > 4 mM (inactive).

As for `CCOC(=O)C1CCC(=O)c2cccn21` (configuration not stated), the Kd is > 4 mM (inactive).

Turning to `Cc1c(CO)cnn1-c1ccc(F)cc1`, the Kd is > 4 mM (inactive).

On to `N#Cc1ccccc1CSc1ccccn1`, for which the Kd was > 4 mM (inactive).

As to `C=CC(C1=CC(=O)C(OC)=CC1=O)c1ccccc1` (configuration not stated), the Kd is > 4 mM (inactive).

Turning to `O=c1[nH]cnc2nn(-c3ccccc3)nc12`, the Kd is > 4 mM (inactive).

Take `CC(C)/C(O)=C1/C(=O)O[C@@H](c2ccoc2)[C@]2(C)C(O)[C@@H](O)[C@@]34OC5(C)OC67CC(C)(C(O)[C@]6(O)[C@@H](O)[C@]3(O5)C12)[C@H](CC(=O)O)[C@]74C` (some centres not stated): the Kd is > 4 mM (inactive).

`CC(C)(C)CC(=O)N1CCC(C(N)=O)CC1`: the Kd is > 4 mM (inactive).

For `CC1(C)CC(=O)c2cnn(-c3nc4ccccc4[nH]3)c2C1`, the Kd is 0.491 mM.

Turning to `CC(C)CCCC(C)[C@H]1CCC2C3CC=C4CC(=O)CC[C@]4(C)C3CC[C@@]21C` (some centres not stated), the Kd was > 4 mM (inactive).

On to `CC1CCN(S(=O)(=O)N(C)C)CC1`, for which the Kd is > 4 mM (inactive).

Take `Nc1cccc(-c2cnco2)c1`: the Kd is > 4 mM (inactive).

On to `O=C(Nc1ccc2c(c1)OCO2)c1c(F)cccc1F`, for which the Kd is > 4 mM (inactive).

For the molecule `NCc1ccc2c(c1)CCO2`, the Kd is > 4 mM (inactive).

Turning to `CNC(=O)Oc1ccc2c(c1)[C@]1(C)CCN(C)[C@@H]1N2C`, the Kd is > 4 mM (inactive).

Take `Cc1ncc(CC(=O)O)s1`: the Kd is > 4 mM (inactive).

Regarding `Cc1cc(SCC(=O)c2ccccc2)nc(=O)[nH]1`, the Kd is > 4 mM (inactive).

Consider `O=c1ccnc(Nc2ccccc2O)[nH]1`, for which the Kd is > 4 mM (inactive).

For the molecule `CNCc1ccccc1`, the Kd is > 4 mM (inactive).

Consider `Cc1ccc(NC(=O)/C=C2\SC(=O)NC2=O)cc1`, for which the Kd was > 4 mM (inactive).

With `O=C(/C=C/c1ccccc1)NC1CCS(=O)(=O)C1` (configuration not stated), the Kd was > 4 mM (inactive).

Consider `COc1ccc2c(c1OC)OC[C@@H](c1ccc(OC)c(OC)c1OC)C2`, for which the Kd is > 4 mM (inactive).

Consider `Nc1ncc2[nH]cnc2n1`, for which the Kd is > 4 mM (inactive).

As for `CN1C(=O)/C(=C\c2ccc[nH]2)SC1=S`, the Kd is > 4 mM (inactive).

On to `Cc1ccc(-c2nn(C)c(=O)c3ccccc23)cc1CO`, for which the Kd is > 4 mM (inactive).

On to `O=C(O)c1sccc1-n1cccc1`, for which the Kd was > 4 mM (inactive).

Take `CC1=CC2C(CC1=O)C(C)=CCC2C(C)C` (configuration not stated): the Kd is > 4 mM (inactive).

`O=C(O)CCc1nc2ccccc2[nH]c1=O`: the Kd was > 4 mM (inactive).

Turning to `Cc1cc(C)nc(N(C#N)Cc2ccccc2)n1`, the Kd was > 4 mM (inactive).

Turning to `CN1CCC(N(C)C2CCN(C)CC2)CC1`, the Kd is > 4 mM (inactive).

As to `CSc1ccccc1NC(=O)Cn1c(-c2cscn2)nc2ccccc21`, the Kd was > 4 mM (inactive).

As for `CC[C@]12CCCN3CCc4c(n(c5ccccc45)[C@](O)(C(=O)OC)C1)[C@@H]32`, the Kd was > 4 mM (inactive).

For the molecule `Cc1ccc2cccc(SCC(=O)N3CCOCC3)c2n1`, the Kd result is “inactive”.

On to `CC(=O)Nc1ccc(CN2CCOCC2)cc1`, for which the Kd is > 4 mM (inactive).

Consider `CC(=O)c1ccc(NC(=S)N2CCC(O)CC2)cc1`, for which the Kd was > 4 mM (inactive).

Take `CC(C)CCCC(C)C1CCC2C3C[C@@H](O)[C@@]4(O)C[C@@H](O)CC[C@]4(C)C3CC[C@]12C` (some centres not stated): the Kd is > 4 mM (inactive).

As to `Cc1n[nH]c(=S)n(/N=C/c2ccccc2)c1=O`, the Kd is > 4 mM (inactive).

Regarding `Cc1cc(NC(=O)c2ccccc2C(=O)O)no1`, the Kd is > 4 mM (inactive).

As to `O=C(Nc1c[nH]c(=O)[nH]c1=O)c1cccs1`, the Kd is > 4 mM (inactive).

As to `O=C(O[C@@H]1Cc2c(O)cc(O)cc2O[C@@H]1c1ccc(O)c(O)c1)c1cc(O)c(O)c(O)c1`, the Kd is > 4 mM (inactive).

As for `COc1ccc(N2CC(=O)NC2=O)cc1`, the Kd is > 4 mM (inactive).

In the case of `Cc1cc(C)nc(/N=C(/N)N2CCOCC2)n1`, the Kd was > 4 mM (inactive).

For `COCc1nn2c(N)c(C#N)cnc2c1-c1ccccc1`, the Kd is > 4 mM (inactive).

In the case of `Cc1nnsc1C(=O)Nc1ccc(C(N)=O)cc1`, the Kd was > 4 mM (inactive).

For `CC(=O)Oc1c(-c2ccccc2)oc2c(CC=C(C)C)c3c(c(OC(C)=O)c2c1=O)C=CC(C)(C)O3`, the Kd was > 4 mM (inactive).

For `Nc1nc(-c2nc3ccccc3[nH]2)cs1`, the Kd is 0.068 mM and 0.098 mM.

As for `Cc1ccc(C)n1-c1ccc(C(=O)N2CCOCC2)cc1`, the Kd is > 4 mM (inactive).

With `CC(=O)c1c(C)nc(-c2ccc(F)cc2)n1O`, the Kd is > 4 mM (inactive).

Regarding `N=C1/C(=C\c2ccco2)C(=O)N=C2SC=NN12`, the Kd is > 4 mM (inactive).

For `O=C(O)/C=C/c1ccc(O)c(O)c1`, the Kd is > 4 mM (inactive).

Regarding `c1cc(CNc2ccc3c(c2)OCCO3)ccn1`, the Kd is > 4 mM (inactive).

Consider `Cn1nc(-c2cccs2)cc1N`, for which the Kd was > 4 mM (inactive).

For the molecule `O=C(Nc1nncs1)C1(c2ccccc2)CCCC1`, the Kd is > 4 mM (inactive).

`Cc1nnc(-n2cnc3ccccc32)c2ccccc12`: the Kd is > 4 mM (inactive).

As to `Cc1nnc(NCc2cccnc2)[nH]c1=O`, the Kd was > 4 mM (inactive).

Turning to `CN(C)c1ccc(/C=C2/NC(=S)NC2=O)cc1`, the Kd was > 4 mM (inactive).

As for `CP(C)(=O)c1cccc(C(=O)O)c1`, the Kd is > 4 mM (inactive).

As for `CC(=O)Cc1nsc(NC(=O)c2ccc(C)cc2)n1`, the Kd was > 4 mM (inactive).

Consider `C[C@@H]1CC[C@@]2(OC1)OC1C(O)C3C4CC[C@H]5C[C@H](O[C@@H]6O[C@H](CO)[C@H](O[C@@H]7O[C@H](CO)[C@@H](O)[C@H](O[C@@H]8OC[C@@H](O)[C@H](O)[C@H]8O)[C@H]7O[C@@H]7O[C@H](CO)[C@H](O)[C@H](O[C@@H]8O[C@H](CO)[C@@H](O)[C@H](O)[C@H]8O)[C@H]7O)[C@H](O)[C@H]6O)[C@H](O)C[C@]5(C)C4CC[C@]3(C)C1[C@@H]2C` (some centres not stated), for which the Kd was > 4 mM (inactive).

Turning to `O=C1CSC(=Nc2ccc(Cl)cc2)N1`, the Kd is > 4 mM (inactive).

As for `Cc1cc(=O)cc(C)n1-c1ccccc1N1CCOCC1`, the Kd is > 4 mM (inactive).

As for `CCOC(=O)Cn1cnc2c1c(=O)[nH]c(=O)n2C`, the Kd is > 4 mM (inactive).

As for `CCn1c(-c2ccccc2)n[nH]c1=S`, the Kd is > 4 mM (inactive).

Regarding `Cc1n[nH]c(C)c1-c1ccccc1C(=O)O`, the Kd was > 4 mM (inactive).

On to `Nc1ccc2c(c1)COc1ccccc1O2`, for which the Kd was > 4 mM (inactive).

Take `CC(C)n1nnc2cc(C(=O)O)ccc21`: the Kd was > 4 mM (inactive).

`CC(=O)Nc1cccc(NC(=O)c2cccnc2)c1`: the Kd was > 4 mM (inactive).

On to `Cc1ccc(C)c(C(=O)n2cnnc2N)c1`, for which the Kd is > 4 mM (inactive).

`COc1ccc(-c2oc3ccccc3c(=O)c2O)cc1OC`: the Kd was > 4 mM (inactive).

Regarding `S=c1nc(C2CC2)[nH]c2ccccc12`, the Kd is > 4 mM (inactive).

For the molecule `CN(C)S(=O)(=O)c1cccc(N)c1`, the Kd was > 4 mM (inactive).

As to `Oc1ccccc1C(=S)N1CCCCCC1`, the Kd was > 4 mM (inactive).

For `O=C(O)c1cccnc1N1CCCC1`, the Kd is > 4 mM (inactive).

Turning to `CC1(C)C=Cc2c(cc3occ(-c4ccc5c(c4)OCO5)c(=O)c3c2O)O1`, the Kd is > 4 mM (inactive).

In the case of `Cc1[nH]ccc2c1[nH]c1cc(=O)ccc12`, the Kd is > 4 mM (inactive).

With `O=C(O)c1cc2ccccc2cn1`, the Kd is > 4 mM (inactive).

On to `O=S1(=O)CCC(Nc2ccccc2)C1` (configuration not stated), for which the Kd was > 4 mM (inactive).

As for `O=C(NCC1CCCCC1)c1ccco1`, the Kd was > 4 mM (inactive).

On to `CC(=O)O[C@H]1C[C@@H](OC(C)=O)C(C)(C)C2CC(=O)[C@]3(C)C(CC[C@@]4(C)[C@H](c5ccoc5)OC(=O)[C@H]5O[C@]543)[C@]21C` (some centres not stated), for which the Kd is > 4 mM (inactive).

Take `O=C(O)CCC(=O)Nc1nnc(C(F)(F)F)s1`: the Kd is > 4 mM (inactive).

On to `Cc1ccccc1NC(=O)c1ccccc1`, for which the Kd was > 4 mM (inactive).

Regarding `OC[C@@H](O)[C@@H](O[C@@H]1O[C@H](CO)[C@@H](O)[C@H](O)[C@H]1O)[C@H](O)[C@@H](O)CO`, the Kd is > 4 mM (inactive).

On to `C[C@@H]1CC[C@@]23CCC4(C)[C@@](C=CC5[C@@]6(C)CCC(=O)C(C)(C)C6CC[C@]54C)(OC2=O)C3[C@H]1C` (some centres not stated), for which the Kd is > 4 mM (inactive).

In the case of `COc1c2occc2cc2ccc(=O)oc12`, the Kd is > 4 mM (inactive).

`CC(=O)O[C@@H]1CC[C@@]2(C)C(CC[C@]3(C)C2CC=C2C4CC(C)(C)CC[C@]4(C(=O)O)CC[C@]23C)C1(C)C` (some centres not stated): the Kd is > 4 mM (inactive).

For the molecule `CN(C)CC(O)C1CCOC(C)(C)C1` (configuration not stated), the Kd is > 4 mM (inactive).

As to `CC(=O)c1ccc[nH]1`, the Kd was > 4 mM (inactive).

On to `O=C(O)CN1CCNCC1`, for which the Kd is > 4 mM (inactive).

For the molecule `Cc1cc(C(=O)N2CCN(c3ncccn3)CC2)cs1`, the Kd was > 4 mM (inactive).

With `Cc1cc(NC(=O)c2ccc3c(c2)OCCO3)no1`, the Kd is > 4 mM (inactive).
